In patent US4448714A, “Antibiotic polypeptide compounds prepared from staphlococcus bacteria” (priority 1979, dated 1984):

Tested on: S. Epidermidis NCIB 11536
Test: Antibiotic sensitivities of the producer strain (disc)
Assay type: cell-based
Settings: 5 μg disc; strain characteristics table

Question: With `CO[C@@H]1[C@@H](OC(N)=O)[C@@H](O)[C@H](Oc2ccc3c(O)c(NC(=O)c4ccc(O)c(CC=C(C)C)c4)c(=O)oc3c2C)OC1(C)C` [novobiocin] as the compound, how does the Novobiocin sensitivity read?
Answer: sensitive
